The target in this assay is T1, Recombinant human Src (Homo sapiens, UniProt P12931).
T1 construct: made in house; host or cells: baculovirus-insect cell system
T1 sequence (P12931 whole entry): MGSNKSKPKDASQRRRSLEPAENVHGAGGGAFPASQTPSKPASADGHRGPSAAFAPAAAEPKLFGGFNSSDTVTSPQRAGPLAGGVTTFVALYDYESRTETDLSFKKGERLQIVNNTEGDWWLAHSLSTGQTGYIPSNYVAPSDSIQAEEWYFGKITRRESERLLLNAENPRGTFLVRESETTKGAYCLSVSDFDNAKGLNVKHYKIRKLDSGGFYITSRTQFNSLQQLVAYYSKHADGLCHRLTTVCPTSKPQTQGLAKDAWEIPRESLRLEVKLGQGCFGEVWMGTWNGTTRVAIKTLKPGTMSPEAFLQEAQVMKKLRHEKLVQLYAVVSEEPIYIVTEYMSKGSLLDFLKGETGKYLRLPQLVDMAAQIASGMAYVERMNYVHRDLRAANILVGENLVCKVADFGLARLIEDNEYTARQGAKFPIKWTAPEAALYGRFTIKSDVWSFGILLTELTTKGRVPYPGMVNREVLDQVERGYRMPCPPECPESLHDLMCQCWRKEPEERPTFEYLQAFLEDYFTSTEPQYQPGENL
The experiment in a line: Src tyrosine kinase activity assay with poly E4Y and 32P-ATP. The assay is classed as biochemical. Conditions: poly E4Y, 32P-ATP; NI = no inhibition; read-out: IC50 Value Src. On the procedure:
Recombinant human Src was expressed using the baculovirus-insect cell system and purified as published (Budde et al., 1993 and 2000). Recombinant Csk and the FGF receptor (FGFr) were expressed as […] fusion proteins using the pGEX expression vector and E. coli, and purified as described (Sun & Budde, 1995).
The tyrosine kinase activity of Src, Csk and FGFr was determined using poly E4Y and ^32P-ATP. Briefly, enzymes were assayed in a reaction mixture […] consisting of 0.15 M EPPS-NaOH (pH 8.0) with 6 mM MgCl2, 0.2 mM γ^32P-ATP (0.2-0.4 mCi/μmol), 10% glycerol, 0.1% Triton X-100, and poly E4Y. Poly E4Y is a synthetic peptide whose phosphorylation is measured in this assay by the addition of the radioactively labeled phosphate from the ATP (Budde et al., 1995). […] When ATP was varied (0, 50, 100 and 250 μM), poly E4Y was kept constant at 150 μg/ml.
With `CCOc1ccccc1-c1sc2c(NN=Cc3ccc(F)cc3)ncnc2c1C#N` [compound 135], the IC50 was determined as 4 nM.

In the case of `CCOc1ccccc1-c1sc2c(NN=Cc3ccc(OC)c(O)c3)ncnc2c1CC` [compound 35], the half-inhibitory concentration (IC50) amounted to 14 nM.

`CCOc1cc(F)ccc1-c1sc2c(NN=Cc3cccs3)ncnc2c1C` [Compound 106, 2-Thiophenecarboxaldehyde (6-(2-ethoxy-4-fluorophenyl)-7-methythieno[3,2-d]pyrimidin-4-yl)hydrazone]: the half-inhibitory concentration (IC50) is 9.5 nM.

Regarding `CCOc1cc(F)ccc1-c1sc2c(NN=Cc3cccs3)ncnc2c1CO` [Compound 107, 2-Thiophenecarboxaldehyde (6-(2-ethoxy-4-fluorophenyl)-7-hydroxymethylthieno[3,2-d]pyrimidin-4-yl)hydrazone], the IC50 was 55 nM.

Consider `CCOc1ccccc1-c1sc2c(NN=Cc3ccc(O)c(Cl)c3)ncnc2c1C#N` [compound 90], for which the 50% inhibitory concentration (IC50) worked out at 2.1 nM.

Take `CCOc1ccccc1-c1sc2c(NN=Cc3ccc(NC(C)=O)cc3)ncnc2c1O` [Compound 132, 4-Acetamidobenzaldehyde (6-(2-ethoxyphenyl)-7-hydroxythieno[3,2-d]pyrimidin-4-yl)hydrazone]: the 50% inhibitory concentration (IC50) stood at 2.4 nM.

In the case of `Cc1c(-c2cccc(C(N)=O)c2)sc2c(NN=Cc3ccc(C(=O)O)cc3)ncnc12` [Compound 22, 4-Carboxybenzaldehyde (6-(3-aminocarbonylphenyl)-7-methylthieno[3,2-d]pyrimidin-4-yl)hydrazone], the concentration for half-maximal inhibition (IC50) worked out at 41 nM.

With `Cc1c(-c2cccc(CN)c2)sc2c(NN=Cc3cccnc3)ncnc12` [Compound 6, 3-Pyridinecarboxaldehyde (6-(3-aminomethyl)phenyl-7-methylthieno[3,2-d]pyrimidin-4-yl)hydrazone], the IC50 was 16 nM.

`CCOc1ccccc1-c1sc2c(NN=Cc3nccn3C)ncnc2c1C#N` [compound 138]: the IC50 amounted to 18 nM.

As for `CCOc1ccccc1-c1sc2c(NN=Cc3ccc(OC)c(OC)c3)ncnc2c1C` [Compound 53, 3,4-Dimethoxybenzaldehyde (6-(2-ethoxyphenyl)-7-methylthieno[3,2-d]pyrimidin-4-yl)hydrazone], the half-inhibitory concentration (IC50) was found to be 4.6 nM.

Turning to `CCOc1ccccc1-c1sc2c(NN=Cc3ccc(C(=O)O)cc3)ncnc2c1CO` [Compound 72, 4-Carboxybenzaldehyde (6-(2-ethoxyphenyl)-7-hydroxymethylthieno[3,2-d]pyrimidin-4-yl)hydrazone], the IC50 came to 32 nM.

For `CCOc1ccccc1-c1sc2c(NN=Cc3ncc[nH]3)ncnc2c1O` [Compound 97, 2-Imidazolecarboxaldehyde (6-(2-ethoxyphenyl)-7-hydroxythieno[3,2-d]pyrimidin-4-yl)hydrazone], the IC50 was 55 nM.

As to `COc1ccc(C=NNc2ncnc3c(C)c(-c4cccc(C#N)c4)sc23)cc1O` [Compound 27, 3-Hydroxy-4-methoxybenzaldehyde (6-(3-cyanophenyl)-7-methylthieno[3,2-d]pyrimidin-4-yl)hydrazone], the IC50 came out at 58 nM.

With `COc1ccc(C=NNc2ncnc3c(C)c(-c4ccc(O)cc4)sc23)cc1O` [Compound 38, 3-Hydroxy-4-methoxybenzaldehyde (6-(4-hydroxyphenyl)-7-methylthieno[3,2-d]pyrimidin-4-yl)hydrazone], the half-inhibitory concentration (IC50) amounted to 15 nM.

Regarding `CCOc1ccccc1-c1sc2c(NN=Cc3ccc(OC)c(O)c3)ncnc2c1C#N` [compound 47], the 50% inhibitory concentration (IC50) is 1.5 nM.

As for `Cc1c(-c2cccc(N)c2)sc2c(NN=Cc3cccnc3)ncnc12` [Compound 11, 3-Pyridinecarboxaldehyde (6-(3-aminophenyl)-7-methylthieno[3,2-d]pyrimidin-4-yl)hydrazone], the 50% inhibitory concentration (IC50) amounted to 4.9 nM.

In the case of `CCOc1ccccc1-c1sc2c(NN=Cc3cccnc3)ncnc2c1C#N` [compound 67], the IC50 stood at 1.2 nM.

With `COc1ccc(C=NNc2ncnc3c(C)c(-c4ccc(N)cc4)sc23)cc1O` [Compound 10, 3-Hydroxy-4-methoxybenzaldehyde (6-(4-aminophenyl)-7-methylthieno[3,2-d]pyrimidin-4-yl)hydrazone], the half-maximal inhibitory concentration (IC50) was found to be 8.7 nM.

On to `CCOc1ccccc1-c1sc2c(NN=Cc3c[nH]c(=O)[nH]c3=O)ncnc2c1C#N` [compound 111], for which the concentration for half-maximal inhibition (IC50) was 12 nM.

As to `CCOc1ccccc1-c1sc2c(NN=Cc3cc(OC)c(O)c(OC)c3)ncnc2c1C` [Compound 65, 3,5-Dimethoxy-4-hydroxybenzaldehyde (6-(2-ethoxyphenyl)-7-methylthieno[3,2-d]pyrimidin-4-yl)hydrazone], the IC50 stood at 0.99 nM.

Regarding `COc1ccc(C=NNc2ncnc3c(C)c(-c4ccc(CN)cc4)sc23)cc1O` [Compound 5, 3-Hydroxy-4-methoxybenzaldehyde (6-(4-aminomethyl)phenyl-7-methylthieno[3,2-d]pyrimidin-4-yl)hydrazone], the half-inhibitory concentration (IC50) came out at 32 nM.

For `CCOc1ccccc1-c1sc2c(NN=Cc3ccc(OC)c(OCCN(CC)CC)c3)ncnc2c1C` (single isomer, unassigned) [Compound 158], the 50% inhibitory concentration (IC50) was 0.015 nM.

With `CCOc1ccccc1-c1sc2c(NN=Cc3ccc(C)s3)ncnc2c1C#N` [compound 126], the concentration for half-maximal inhibition (IC50) worked out at 4.9 nM.

With `CCOc1ccccc1-c1sc2c(NN=Cc3ccsc3)ncnc2c1C#N` [compound 91], the half-maximal inhibitory concentration (IC50) came out at 0.58 nM.

In the case of `COc1ccc(C=NNc2ncnc3c(C)c(-c4ccc(F)cc4)sc23)cc1O` [Compound 36, 3-Hydroxy-4-methoxybenzaldehyde (6-(4-fluorophenyl)-7-methylthieno[3,2-d]pyrimidin-4-yl)hydrazone], the IC50 is 57 nM.

For the molecule `CCOc1ccccc1-c1sc2c(NN=Cc3cccnc3)ncnc2c1O` [Compound 73, 3-Pyridinecarboxaldehyde (6-(2-ethoxyphenyl)-7-hydroxythieno[3,2-d]pyrimidin-4-yl)hydrazone], the concentration for half-maximal inhibition (IC50) stood at 3 nM.

In the case of `CCOc1ccccc1-c1sc2c(NN=Cc3cc(OC)c(O)c(OC)c3)ncnc2c1C#N` [compound 94], the IC50 was 0.34 nM.

On to `CCOc1ccccc1-c1sc2c(NN=Cc3ccc(C(=O)OC)cc3)ncnc2c1O` [Compound 120, Methyl 4-formyl benzoate (6-(2-ethoxyphenyl)-7-hydroxythieno[3,2-d]pyrimidin-4-yl)hydrazone], for which the IC50 was 5.9 nM.

Regarding `CCOc1ccccc1-c1sc2c(NN=Cc3cc(OC)c(OC)c(OC)c3)ncnc2c1C` [Compound 63, 3,4,5-Trimethoxybenzaldehyde (6-(2-ethoxyphenyl)-7-methylthieno[3,2-d]pyrimidin-4-yl)hydrazone], the 50% inhibitory concentration (IC50) stood at 1.3 nM.

On to `Cc1c(-c2cccc(C#N)c2)sc2c(NN=Cc3ccc(C(=O)O)cc3)ncnc12` [Compound 30, 4-Carboxybenzaldehyde (6-(3-cyanophenyl)-7-methylthieno[3,2-d]pyrimidin-4-yl)hydrazone], for which the IC50 was found to be 160 nM.

As to `COc1ccc(C=NNc2ncnc3c(C)c(-c4ccccc4N)sc23)cc1O` [Compound 13, 3-Hydroxy-4-methoxybenzaldehyde (6-(2-aminophenyl)-7-methylthieno[3,2-d]pyrimidin-4-yl)hydrazone], the half-inhibitory concentration (IC50) turned out to be 38 nM.

With `Cc1c(-c2ccc(N)cc2)sc2c(NN=Cc3cccnc3)ncnc12` [Compound 8, 3-Pyridinecarboxaldehyde (6-(4-aminophenyl)-7-methylthieno[3,2-d]pyrimidin-4-yl)hydrazone], the half-inhibitory concentration (IC50) stood at 9.6 nM.

`CCOc1ccccc1-c1sc2c(NN=Cc3ccc(O)c(OC)c3)ncnc2c1C` [Compound 55]: the concentration for half-maximal inhibition (IC50) was 3.3 nM.

As for `CCOc1ccccc1-c1sc2c(NN=Cc3ccccc3F)ncnc2c1C` [Compound 78, 2-Fluorobenzaldehyde (6-(2-ethoxyphenyl)-7-methylthieno[3,2-d]pyrimidin-4-yl)hydrazone], the IC50 is 0.84 nM.

As to `COc1ccc(C=NNc2ncnc3c(C)c(-c4ccccc4C#N)sc23)cc1O` [Compound 31, 3-Hydroxy-4-methoxybenzaldehyde (6-(2-cyanophenyl)-7-methylthieno[3,2-d]pyrimidin-4-yl)hydrazone], the IC50 was found to be 74 nM.

On to `COc1ccc(C=NNc2ncnc3c(C)c(-c4cccc(N)c4)sc23)cc1O` [Compound 12, 3-Hydroxy-4-methoxybenzaldehyde (6-(3-aminophenyl)-7-methylthieno[3,2-d]pyrimidin-4-yl)hydrazone], for which the IC50 was found to be 1.2 nM.

In the case of `CCOc1cc(F)ccc1-c1sc2c(NN=Cc3cccs3)ncnc2c1C#N` [compound 108], the IC50 is 8.5 nM.

In the case of `CCOc1ccccc1-c1sc2c(NN=Cc3ncc[nH]3)ncnc2c1C#N` [compound 95], the IC50 was 25 nM.

Consider `Cc1c(-c2cccc(C(=N)N)c2)sc2c(NN=Cc3cccnc3)ncnc12` [Compound 32], for which the IC50 was determined as 41 nM.

Turning to `Cc1c(-c2ccc(O)cc2)sc2c(NN=Cc3cccnc3)ncnc12` [Compound 75, 3-Pyridinecarboxaldehyde (6-(4-hydroxyphenyl)-7-methylthieno[3,2-d]pyrimidin-4-yl]hydrazone], the half-maximal inhibitory concentration (IC50) is 21 nM.

`CCOc1ccccc1-c1sc2c(NN=Cc3cc(O)c(OC)c(OC)c3)ncnc2c1C#N` [compound 98]: the IC50 was determined as 1 nM.

With `CCOc1ccccc1-c1sc2c(NN=Cc3ccco3)ncnc2c1C#N` [compound 119], the half-inhibitory concentration (IC50) amounted to 4.7 nM.

Consider `Cc1c(-c2cccc(C#N)c2)sc2c(NN=Cc3cccs3)ncnc12` [Compound 28, 2-Thiophenecarboxaldehyde (6-(3-cyanophenyl)-7-methylthieno[3,2-d]pyrimidin-4-yl)hydrazone], for which the IC50 is 1400 nM.

These data come from US20060004002A1 (priority 2004, published 2006).
